Patent publication US9562046B2, “Means and method for treating solid tumors” (Vivolux AB, priority 2012, dated 2017)

Columns and labels:
[1] = Stability studies at room temperature in 5% aqueous mannitol; type: physicochemical; details: dihydrochloride/ethanol complex, storage for 100 h
Method: Stability studies at room temperature were conducted with from 0.1 mg/L to 15 mg/L of the dihydrochloride/ethanol complex in 5% aqueous mannitol (to provide for isotonicity). […] For instance, about 2.5% compound 11 is degraded after storage for 100 h of a solution comprising 15 mg compound per liter, while about 5% of the compound is degraded in a solution comprising 2 mg compound per liter, and about 13 of the compound in a solution comprising 0.1 mg compound per liter.

[2] = Plasma pharmacokinetics after intravenous injection in NMRI mice; type: in vivo
Method: (§1) The compound of the invention (compound 11) was injected intravenously in NMRI mice. […] The compound was rapidly distributed and finally eliminated with a half-life of 4˜5 h. The systemic toxicity of the compound of the invention is low.

NMRI mice = experiment: Intravenous tolerability / systemic toxicity in NMRI mice; type: in vivo
Method: as §1

[3] = as above; type: in vivo; details: mouse, in vivo, iv, injected intravenously, read-out: maximally tolerated dose (MTD)
Method: as §1

C/C(=N/Nc1ccc2c(n1)[nH]c1c(C)cccc12)c1ccccn1 [compound 11, 2-[(1Z)-1-(2-{8-Methyl-8H, 8aH, 9H-pyrido[2,3-b]indol-2-yl}hydrazin-1-ylidene)ethyl]-pyridine]
compound degraded ([1]; 0.1 mg compound per liter): about 13
compound degraded ([1]; 2 mg compound per liter): about 5%
compound degraded ([1]; 15 mg compound per liter): about 2.5%
initial plasma concentration relative to the IC50 of tumor cell lines and primary patient colorectal cancer cells in vitro ([2]; at MTD of 16 mg/kg): > 10 fold
half-life ([2]; mouse, plasma, 16 mg/kg, NMRI mice, read-out: elimination half-life): 4 to 5 h
C0 ([2]; mouse, plasma, at MTD of 16 mg/kg, NMRI mice, read-out: initial plasma concentration): ~100 µM
changes in plasma parameters (liver ALT, blood glucose, total protein) (NMRI mice; doses up to 4.5 mg/kg): did not produce noteworthy changes
effect on the animals' weight gain (NMRI mice; doses up to 4.5 mg/kg): nor did they prevent the animals from gaining weight
systemic toxicity (NMRI mice; intravenous): low
MTD [3]: 16 mg/kg
